According to article PMC7730438, “Generation of KS-58 as the first K-Ras(G12D)-inhibitory peptide presenting anti-cancer activity in vivo” (Scientific Reports, 2020):
Values joined by “and” are separate entries in the source; they are usually repeats but may differ in a detail not shown here. Equal entries are not always repeated. Starred links: 1 amine or outer side, 2 acyl side, 3 side chain; linkers in the order of their positions; H or OH if unused. Positions of bridges follow the written chain, without caps; N, C: chain ends. Non-standard residues stand in square brackets, D forms with d. Residues, ends and D or L forms follow the SMILES beside them. Phe(4-F) = N[C@@H](Cc1ccc(F)cc1)C(=O)O; X1 = CCCCCCC[C@H](N[*:1])C(=O)[*:2]; Nle = CCCC[C@H](N)C(=O)O; X2 = C(C[*:1])C[*:2]; βAla = NCCC(=O)O

Key:
A427 cells = experiment: Cell proliferation assay (CellTiter-Glo, 72 h); format: cell-based, human; settings: A427 (G12D), peptide 30 µM, n = 4, ± SEM
Protocol: (§1) A427 (ATCC HTB-53), A549 (ATCC CCL-185), H1975 (ATCC CRL-5908), PANC-1 (ATCC CRL-1469), MIA PaCa-2 (ATCC CRL-1420), and Capan-1 (ATCC HTB-79) cells were purchased from ATCC, and each cell was cultured in medium supplemented with 10% fetal bovine serum (FBS), according to the protocol recommended by the manufacture.
(§2) The effect of peptides on cell proliferation of A427, A549, H1975, PANC-1, MIA PaCa-2, and Capan-1 cells was determined by 72 h exposure to peptides. Cells were seeded at 1000 cells/well in 96-well tissue culture plates in each growth media and allowed to adhere overnight on day 0. Peptides were solved in DMSO and then diluted with each growth media for a constant final DMSO concentration of 0.5%. Media in the wells were removed and replaced with diluted peptide solutions, and cells were incubated for 3 days. During the incubation, medium containing the peptides was replaced every day. Relative cell numbers were estimated using CellTiter-Glo assay kit (G7570, Promega, WI, USA) according to the manufacturer’s instructions. Luminescence was detected using SpectraMax i3x (MOLECULAR DEVICES, CA, USA). Cell proliferation rate (%) was calculated based on cell numbers at day 0 as 0% and at day 3 without peptide treatment as 100%.

A549 cells = experiment: Cell proliferation assay (CellTiter-Glo, 72 h); format: cell-based, human; settings: A549 (G12S), peptide 30 µM, n = 4, ± SEM
Protocol: as §1, §2

Capan-1 cells = experiment: Cell proliferation assay (CellTiter-Glo, 72 h); format: cell-based, human; settings: Capan-1 (G12V), peptide 30 µM, n = 4, ± SEM
Protocol: as §1, §2

H1975 cells = experiment: Cell proliferation assay (CellTiter-Glo, 72 h); format: cell-based, human; settings: H1975 (WT), peptide 30 µM, n = 4, ± SEM
Protocol: as §1, §2

MIA PaCa-2 cells = experiment: Cell proliferation assay (CellTiter-Glo, 72 h); format: cell-based, human; settings: MIA PaCa-2 (G12C), peptide 30 µM, n = 4, ± SEM
Protocol: as §1, §2

PANC-1 cells = experiment: Cell proliferation assay (CellTiter-Glo, 72 h); format: cell-based, human; settings: PANC-1 (G12D), peptide 30 µM, n = 4, ± SEM
Protocol: as §1, §2

[1] = tested on: PANC-1 orthotopic xenografts; experiment: Anti-cancer efficacy in PANC-1 orthotopic xenografts; format: in vivo, mice; settings: 40 mg/kg iv once every 2 days for 4 weeks
Protocol: To establish orthotropic xenograft tumor models, 2.5 × 10^6 cells/50 µL of PANC-1 cells were injected into the pancreas of BALB/cAJcl-nu/nu male mice (8 weeks old; CLEA Japan, Inc.). KS-58 was dissolved in DMSO and then tenfold diluted by saline. The peptide solution was then injected intravenously to the mice bearing tumors once every 2 days for 4 weeks (40 mg/kg, n = 7). Organ weights of the pancreas, liver, and kidney were measured.

CCCCCCC[C@@H]1NC(=O)[C@@H]2CSCCCSC[C@@H](NC(=O)[C@H](Cc3c[nH]c4ccccc34)NC(=O)[C@@H]3CCCN3C(=O)[C@H](CC(=O)O)NC(=O)[C@H](Cc3ccc(F)cc3)NC(=O)[C@H](CO)NC1=O)C(=O)NCCC(=O)N1CCC[C@H]1C(=O)N[C@@H](CCCC)C(=O)N2 [KS-58, c[βAla-Pro-Nle-c(Cys-Anon-Ser-4fF-Asp-Pro-Trp-^DCys)]] (cyclo([βAla]P[Nle]C[X1]S[Phe(4-F)]DPW[dC]); linker 4-11 via X2)
Cell proliferation (%) (A427 cells): 21.1% and 21.1 ± 5.5% | Cell proliferation (%) (A549 cells): 81.3 ± 1.5% | Cell proliferation (%) (Capan-1 cells): 94.9 ± 2.2% | Cell proliferation (%) (H1975 cells): 92.7 ± 0.3% | Cell proliferation (%) (MIA PaCa-2 cells): 86.8 ± 2.3% | Cell proliferation (%) (PANC-1 cells): 50.1% and 50.1 ± 4.1% | Adverse side effects (loss of body weight, organ swelling of liver and kidney) ([1]; both xenografts): without any adverse side effects | cell growth of PANC-1 (pancreas weight; Sham = 0%, vehicle = 100%) ([1]; orthotopic xenograft): 65%
